Data as given in patent publication US9181259B2 (LEO PHARMA A/S, priority 2012, dated 2015).
“Also recorded” adds a separate entry of the source.

Key:
[1] = molecular target: T1, NK-1 receptor (Meriones unguiculatus, UniProt Q5DUB1); assay: Gerbil scratching model (scratching induced by NK-1 agonist GR73632); type: in vivo, Mongolian gerbil; conditions: for attenuation of scratching induced in gerbils by the NK-1 selective agonist GR73632: topical application 1% w/v (20 μL) 20 min before i.d. GR73632 100 nmol/100 μL, male Mongolian gerbils
T1 construct: animals (male Mongolian gerbils) were shaved on the rostral part of the back; from tissue; host or cells: living male Mongolian gerbils (skin, topical application; in vivo)
Method: The gerbil was selected for this study as this species shares higher homology to the human in terms of NK-1 receptor pharmacology compared to other laboratory rodents.
Each test compound was tested on 11 or 12 animals. On the day of the test, the gerbils (four animals simultaneously) were put into a Plexiglas cage (42×42×35 cm) composed of four cells (20.5×20.5×35 cm) for 10 minutes of habituation. After this period, the test compound (1% w/v in acetone and transcutol 9:1) was topically applied on the shaven area in a volume of 20 μL. Topical application was performed using a Hamilton syringe (25 μL) and a square stencil of impermeable paper (1.5×1.5 cm) to allow application over a defined skin area (2.25 cm2). […] I.d. injection was made with a Hamilton syringe (250 μL) connected to a 27 gauge needle. Immediately after injection, animals were placed back into the same cell of the Plexiglas cage they were previously habituated in and their behaviour was recorded on video remotely for 30 minutes. The experimenter remained out of the observation room in order to minimize disturbance to the animals. The video was subsequently analysed to assess scratching behaviour. Scratching of the injection site by the hind paws was counted while scratching of other sites such as ears and snout were disregarded. Scratching episodes were measured over 10-minutes time intervals, for a total of 30 minutes.
Results were expressed as mean value±SEM. Statistical analysis was performed by a one-way ANOVA followed by LSD post hoc test with the exception of time-course analysis for a repeated-measure ANOVA followed by LSD post hoc test was performed.

[2] = molecular target: T2, NK1 receptor (Homo sapiens, UniProt P25103); assay: NK1 receptor mediated intracellular [Ca2+] mobilization in U251 MG cells using FLIPR; type: cell-based; conditions: antagonist potency against Substance P (EC80), normalized to 100 nM Aprepitant, read-out: U251MG (FLIPR pIC50) (converted)
T2 construct: Measurement of NK1 Receptor Mediated Intracellular [Ca^2+]; Mobilization in U251 MG Cells Using FLIPR; endogenous in cells; host or cells: U251 MG cells
Procedure, shortened: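 Fluo-4-loaded U251 MG cells were preincubated with compound (0.5% DMSO final), with any agonist effect read for 5 min, then 10 min more at 37 °C before Substance P at EC80. Peak FLIPR fluorescence change was read, and IC50 came from a four-parameter fit as the midpoint between fitted top and bottom.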

[3] = Hepatic intrinsic clearance following incubation in human liver microsomes; type: in vitro ADME; conditions: NADPH regenerating system, 0-30 min, 37 °C
Procedure, shortened: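 Compounds (from 50 µM working solution) are incubated with human liver microsomes diluted to 0.55 mg/mL in phosphate pH 7.4, with NADPH regeneration at 37 °C and sampling at 0–30 min. LC-MS/MS parent depletion gives kobs, scaled to mL/min/g liver. Eh uses 25.7 g liver/kg and 20.7 mL/min/kg blood flow.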

T2 sequence (P25103 whole entry): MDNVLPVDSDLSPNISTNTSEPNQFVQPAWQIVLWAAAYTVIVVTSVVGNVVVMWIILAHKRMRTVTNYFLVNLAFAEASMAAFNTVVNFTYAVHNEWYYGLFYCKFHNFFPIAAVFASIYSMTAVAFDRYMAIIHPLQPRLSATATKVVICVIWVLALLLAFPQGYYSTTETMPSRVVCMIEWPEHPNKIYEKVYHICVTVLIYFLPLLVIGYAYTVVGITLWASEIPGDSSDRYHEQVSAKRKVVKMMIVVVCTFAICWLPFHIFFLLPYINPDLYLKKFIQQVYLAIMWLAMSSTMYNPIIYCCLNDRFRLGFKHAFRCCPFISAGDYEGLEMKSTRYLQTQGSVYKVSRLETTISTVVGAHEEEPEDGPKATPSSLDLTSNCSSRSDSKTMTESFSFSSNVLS
T1 sequence (Q5DUB1 whole entry): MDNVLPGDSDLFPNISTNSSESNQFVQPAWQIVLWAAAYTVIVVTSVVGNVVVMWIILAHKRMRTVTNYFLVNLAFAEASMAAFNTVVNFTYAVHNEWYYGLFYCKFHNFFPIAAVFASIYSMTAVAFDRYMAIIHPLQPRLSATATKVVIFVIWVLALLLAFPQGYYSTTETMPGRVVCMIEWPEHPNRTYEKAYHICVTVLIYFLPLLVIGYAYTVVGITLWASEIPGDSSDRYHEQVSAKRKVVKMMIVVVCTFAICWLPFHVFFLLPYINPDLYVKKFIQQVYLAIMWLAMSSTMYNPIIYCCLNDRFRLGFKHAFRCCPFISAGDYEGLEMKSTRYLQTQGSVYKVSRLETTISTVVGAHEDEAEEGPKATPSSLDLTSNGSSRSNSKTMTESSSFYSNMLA

Molecule | attenuation of scratching induced in gerbils by the NK-1 selective agonist GR73632 [1] | IC50 [2] | Human in vitro Clint (mL/min/g liver) [3] | induction of scratching (number of scratches) ([1]; intradermal injection 100 nmol/100 μL, 30 min time course, repeated-measure ANOVA, gerbil)
Cc1ccccc1C1C2CC(CO)C(=O)N2CCN1C(=O)N(C)[C@H](C)c1cc(C(F)(F)F)cc(C(F)(F)F)c1 (single isomer, unassigned) [Compound 55] | not able to attenuate the scratching | 0.151 nM | 2.4 mL/min/g liver | –
Cc1ccccc1C1C2CC(CCO)(CCO)CN2CCN1C(=O)N(C)[C@H](C)c1cc(C(F)(F)F)cc(C(F)(F)F)c1 (single isomer, unassigned) [Compound 60] | able to attenuate the scratching | 0.339 nM | 6.1 mL/min/g liver | –
Cc1cc([C@@H](C)N(C)C(=O)N2CCN3C(=O)C(CO)C[C@H]3[C@@H]2c2ccccc2C)cc(C(F)(F)F)c1 (stereo partly drawn) [Compound 102, (1S,8aS)-7-(hydroxymethyl)-N-methyl-N-((R)-1-(3-methyl-5-(trifluoromethyl)phenyl)ethyl)-6-oxo-1-o-tolylhexahydropyrrolo[1,2-a]pyrazine-2(1H)-carboxamide] | – | 0.214 nM | 5.6 mL/min/g liver | –
5-Aminopentanoyl-L-phenylalanyl-L-phenylalanyl-L-prolyl-L-(N-methyl)leucyl-L-methioninamide [GR73632, reference compound] | – | – | – | induced an increase in the number of scratches; also recorded: induced an increase of scratching
Cc1ccccc1[C@H]1[C@@H]2CC3(CCOCC3)C(=O)N2CCN1C(=O)N(C)[C@H](C)c1cc(C(F)(F)F)cc(C(F)(F)F)c1 [Compound 100, (1′S,8a′S)-N-((R)-1-(3,5-bis(trifluoromethyl)phenyl)ethyl)-N-methyl-6′-oxo-1′-o-tolyloctahydro-1′H-spiro[pyran-4,7′-pyrrolo[1,2-a]pyrazine]-2′(6′H)-carboxamide] | – | 0.126 nM | 3.0 mL/min/g liver | –

Further lines, with some results ahead:

attenuation of scratching induced in gerbils by the NK-1 selective agonist GR73632 [1] | IC50 [2] | Human in vitro Clint (mL/min/g liver) [3] | Molecule | induction of scratching (number of scratches) ([1]; intradermal injection 100 nmol/100 μL, 30 min time course, repeated-measure ANOVA, gerbil)
able to attenuate the scratching | 0.0347 nM | 4.5 mL/min/g liver | Cc1ccccc1[C@H]1[C@@H]2CCC(=O)N2CCN1C(=O)N(C)[C@H](C)c1cc(C(F)(F)F)cc(C(F)(F)F)c1 (single isomer, unassigned) [Compound 9] | –
able to attenuate the scratching | 0.12 nM | 9.5 mL/min/g liver | Cc1ccccc1C1C2CC(CCO)(CCO)C(=O)N2CCN1C(=O)N(C)[C@H](C)c1cc(C(F)(F)F)cc(C(F)(F)F)c1 (single isomer, unassigned) [Compound 54] | –
able to attenuate the scratching | 0.0692 nM | 2.6 mL/min/g liver | Cc1ccccc1C1C2CC(CCO)(CCO)C(=O)N2CCN1C(=O)N(C)Cc1cc(C(F)(F)F)cc(C(F)(F)F)c1 (single isomer, unassigned) [Compound 44, N-{[3,5-bis(trifluoromethyl)phenyl]methyl}-7,7-bis(2-hydroxyethyl)-N-methyl-1-(2-methylphenyl)-6-oxo-octahydropyrrolo[1,2-a]piperazine-2-carboxamide] | –
not able to attenuate the scratching | 0.195 nM | 3.3 mL/min/g liver | Cc1ccccc1C1C2CC(CN3CCOCC3)C(=O)N2CCN1C(=O)N(C)Cc1cc(C(F)(F)F)cc(C(F)(F)F)c1 (single isomer, unassigned) [Compound 38] | –
